pIC50: −log10 of the molar value.
Experiments:
[1] = target: Transitional endoplasmic reticulum ATPase (Homo sapiens, UniProt P55072); assay: biochemical; type: cell-based
Description: Inhibition of human full length VCP (2 to 806 residues) expressed in High5 insect cells assessed as reduction in ATPase activity by measuring ADP formation by NADH coupled assay

[2] = Inhibition of cell proliferation of human HCT116 cells after 72 hrs by thermostable firefly luciferase based assay; type: functional, HCT-116; settings: Homo sapiens, HCT-116, 72 h; read-out: IC50

Chain of Transitional endoplasmic reticulum ATPase (P55072 whole entry): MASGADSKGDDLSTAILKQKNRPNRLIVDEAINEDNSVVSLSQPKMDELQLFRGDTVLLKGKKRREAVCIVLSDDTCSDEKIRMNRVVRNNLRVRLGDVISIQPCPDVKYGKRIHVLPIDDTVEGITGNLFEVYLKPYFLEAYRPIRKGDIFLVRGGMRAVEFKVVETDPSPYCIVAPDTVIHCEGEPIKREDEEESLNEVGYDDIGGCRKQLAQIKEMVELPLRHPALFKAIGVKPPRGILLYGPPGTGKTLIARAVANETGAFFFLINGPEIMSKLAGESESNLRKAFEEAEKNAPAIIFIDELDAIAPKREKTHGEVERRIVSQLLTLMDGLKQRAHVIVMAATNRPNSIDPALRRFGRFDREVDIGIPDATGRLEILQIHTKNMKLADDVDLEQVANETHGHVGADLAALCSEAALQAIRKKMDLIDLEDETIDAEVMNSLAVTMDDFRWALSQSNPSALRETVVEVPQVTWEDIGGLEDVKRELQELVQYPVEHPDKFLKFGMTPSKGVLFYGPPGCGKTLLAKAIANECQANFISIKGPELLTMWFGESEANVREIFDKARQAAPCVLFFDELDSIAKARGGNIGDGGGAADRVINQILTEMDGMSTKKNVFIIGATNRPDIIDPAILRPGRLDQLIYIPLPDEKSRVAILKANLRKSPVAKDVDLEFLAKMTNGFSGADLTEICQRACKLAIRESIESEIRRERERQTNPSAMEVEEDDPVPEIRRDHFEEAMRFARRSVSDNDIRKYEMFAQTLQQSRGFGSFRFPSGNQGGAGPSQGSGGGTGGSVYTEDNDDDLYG

| Compound | pIC50 [1] | pIC50 [2] |
| --- | --- | --- |
| O=C(O)[C@H]1CC[C@H](CNc2nc(NCc3ccccc3)cc(-c3ccccc3)n2)CC1 | 7.57 | < 4.70 |
| NC(=O)[C@H]1CC[C@H](CNc2nc(NCc3ccccc3)cc(-c3ccccc3)n2)CC1 | 6.90 | 5.02 |
| CNC(=O)[C@H]1CC[C@H](CNc2nc(NCc3ccccc3)cc(-c3ccccc3)n2)CC1 | 6.35 | 5.03 |
| CS(=O)(=O)NC(=O)[C@H]1CC[C@H](CNc2nc(NCc3ccccc3)cc(-c3ccccc3)n2)CC1 | 6.88 | < 4.70 |
| O=C(NS(=O)(=O)C(F)(F)F)[C@H]1CC[C@H](CNc2nc(NCc3ccccc3)cc(-c3ccccc3)n2)CC1 | 6.58 | < 4.70 |
| NNC(=O)[C@H]1CC[C@H](CNc2nc(NCc3ccccc3)cc(-c3ccccc3)n2)CC1 | 6.01 | < 4.70 |
| NC(=O)[C@H]1CC[C@H](CNc2nc(NCc3ccccc3)cc(-c3ccccc3F)n2)CC1 | 7.34 | < 5.00 |

Reference: ChEMBL document CHEMBL3352358, “Discovery of 2-(cyclohexylmethylamino)pyrimidines as a new class of reversible valosine containing protein inhibitors” (J Med Chem, 2014)
